Results published in ChEMBL document CHEMBL2311427, “Bioactive barrigenol type triterpenoids from the leaves of Xanthoceras sorbifolia Bunge” (Eur J Med Chem, 2013).

Experiments:
Assay type in all cases: functional, cell-based
HeLa = experiment: Antitumor activity against human HeLa cells assessed as growth inhibition measured after 48 hrs by MTT assay
MCF7 = experiment: Antitumor activity against human MCF7 cells assessed as growth inhibition measured after 48 hrs by MTT assay; details: MCF7, 48 h
HepG2 = experiment: Antitumor activity against human HepG2 cells assessed as growth inhibition measured after 48 hrs by MTT assay; details: HepG2, 48 h

Row | Structure (SMILES) | IC50 (HeLa) | IC50 (MCF7) | IC50 (HepG2)
1 | COc1cc([C@@H]2c3cc4c(cc3[C@@H](O[C@@H]3O[C@@H]5CO[C@@H](C)O[C@H]5[C@H](O)[C@H]3O)[C@H]3COC(=O)[C@H]23)OCO4)cc(OC)c1O [ETOPOSIDE] | 8.32 µM | 59.8 µM | 9.14 µM
2 | C/C=C(/C)C(=O)O[C@H]1[C@H](OC(=O)/C(C)=C\C)[C@]2(CO)[C@H](O)[C@H](O)[C@]3(C)C(=CC[C@@H]4[C@@]5(C)CC[C@H](O[C@@H]6O[C@H](CO[C@@H]7O[C@H](CO)[C@@H](O)[C@H](O)[C@H]7O)[C@@H](O)[C@H](O)[C@H]6O[C@@H]6O[C@@H](CO)[C@H](O)[C@H]6O)C(C)(C)[C@@H]5CC[C@]43C)[C@@H]2CC1(C)C | 7.56 µM | 9.62 µM | 9.21 µM
3 | C[C@@H]1O[C@@H](O[C@H]2[C@H](OC[C@@]34CC[C@]5(C)C(=CC[C@@H]6[C@@]7(C)CC[C@H](O[C@@H]8O[C@H](CO[C@@H]9O[C@H](CO)[C@@H](O)[C@H](O)[C@H]9O)[C@@H](O)[C@H](O)[C@H]8O)C(C)(C)[C@@H]7CC[C@]65C)[C@@H]3CC(C)(C)[C@@H](O)[C@@H]4O)O[C@H](CO[C@@H]3O[C@H](CO)[C@@H](O)[C@H](O)[C@H]3O)[C@@H](O)[C@@H]2O)[C@H](O)[C@H](O)[C@H]1O [XANIFOLIA O54] | 3.98 µM | 7.29 µM | 7.25 µM
4 | O=c1[nH]cc(F)c(=O)[nH]1 [FLUOROURACIL] | 14.8 µM | > 100 µM | > 100 µM
5 | C/C=C(/C)C(=O)O[C@H]1[C@H](OC(=O)/C(C)=C\C)[C@]2(CO)[C@H](O)[C@H](O)[C@]3(C)C(=CC[C@@H]4[C@@]5(C)CC[C@H](O[C@@H]6O[C@H](C(=O)OC)[C@@H](O)[C@H](O)[C@H]6O[C@@H]6O[C@H](CO)[C@@H](O)[C@H](O)[C@H]6O)C(C)(C)[C@@H]5CC[C@]43C)[C@@H]2CC1(C)C | 81.6 µM | > 100 µM | 43.7 µM
6 | C[C@@H]1O[C@@H](O[C@H]2[C@H](OC[C@@]34CC[C@]5(C)C(=CC[C@@H]6[C@@]7(C)CC[C@H](O[C@@H]8O[C@H](CO[C@@H]9O[C@H](CO)[C@@H](O)[C@H](O)[C@H]9O)[C@@H](O)[C@H](O)[C@H]8O)C(C)(C)[C@@H]7CC[C@]65C)[C@@H]3CC(C)(C)[C@@H](O)[C@@H]4O)O[C@H](CO)[C@@H](O)[C@@H]2O)[C@H](O)[C@H](O)[C@H]1O | 18.8 µM | 25.4 µM | 31.5 µM
7 | C/C=C(/C)C(=O)O[C@H]1[C@H](O[C@H]2CC[C@]3(C)[C@H]4CC=C5[C@@H]6CC(C)(C)[C@@H](O)[C@H](O)[C@]6(CO[C@@H]6O[C@H](CO[C@@H]7O[C@H](CO)[C@@H](O)[C@H](O)[C@H]7O)[C@@H](O)[C@H](O)[C@H]6O[C@@H]6O[C@@H](C)[C@H](O)[C@@H](O)[C@H]6O)CC[C@@]5(C)[C@]4(C)CC[C@H]3C2(C)C)O[C@H](CO[C@@H]2O[C@H](CO)[C@@H](O)[C@H](O)[C@H]2O)[C@@H](O)[C@@H]1O | > 100 µM | > 100 µM | > 100 µM
8 | Oc1ccc(/C=C/c2cc(O)cc(O)c2)cc1 [RESVERATROL] | 58.9 µM | > 100 µM | > 100 µM
9 | CC(=O)O[C@H]1C(=O)[C@@]2(C)[C@H]([C@H](OC(=O)c3ccccc3)[C@]3(O)C[C@H](OC(=O)[C@H](O)[C@@H](NC(=O)c4ccccc4)c4ccccc4)C(C)=C1C3(C)C)[C@]1(OC(C)=O)CO[C@@H]1C[C@@H]2O [PACLITAXEL] | – | 77.2 µM | 61.8 µM
10 | C/C=C(/C)C(=O)O[C@@H]1[C@@H](O)[C@H](O[C@H]2CC[C@]3(C)[C@H]4CC=C5[C@@H]6CC(C)(C)[C@@H](O)[C@H](O)[C@]6(CO[C@@H]6O[C@H](CO[C@@H]7O[C@H](CO)[C@@H](O)[C@H](O)[C@H]7O)[C@@H](O)[C@H](O)[C@H]6O[C@@H]6O[C@@H](C)[C@H](O)[C@@H](O)[C@H]6O)CC[C@@]5(C)[C@]4(C)CC[C@H]3C2(C)C)O[C@H](CO[C@@H]2O[C@H](CO)[C@@H](O)[C@H](O)[C@H]2O)[C@H]1O | > 100 µM | > 100 µM | > 100 µM
